Our source for the IC50 values is patent US20260109694A1, “HETEROCYCLIC COMPOUNDS AND USES THEREOF” (Kumquat Biosciences Inc., priority 2023, published 2026).

Some results are limits rather than exact numbers.

The target of one assay is T1, PTP1B (Homo sapiens, UniProt P18031).
T1 sequence (P18031 1-435): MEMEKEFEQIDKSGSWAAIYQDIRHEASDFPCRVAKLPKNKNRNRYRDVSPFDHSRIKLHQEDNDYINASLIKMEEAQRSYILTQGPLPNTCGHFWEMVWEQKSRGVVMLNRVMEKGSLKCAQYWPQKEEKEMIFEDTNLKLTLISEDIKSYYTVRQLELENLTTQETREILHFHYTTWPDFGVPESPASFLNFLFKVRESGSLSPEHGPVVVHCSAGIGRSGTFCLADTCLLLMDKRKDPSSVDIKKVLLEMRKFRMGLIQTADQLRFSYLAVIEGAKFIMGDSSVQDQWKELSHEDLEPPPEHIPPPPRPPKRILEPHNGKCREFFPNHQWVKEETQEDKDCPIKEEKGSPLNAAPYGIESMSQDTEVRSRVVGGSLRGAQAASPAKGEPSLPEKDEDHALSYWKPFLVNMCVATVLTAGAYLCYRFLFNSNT
In words: Phosphatase activity assay (DiFMUP substrate). Format: biochemical. The following applies: value bin printed in column head. The essentials:
(§1)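 Each enzyme (PTPN2 at 0.025 ng/ul) was premixed ~2 min with a 10-point inhibitor series in 50 mM HEPES pH 7.5, 150 mM NaCl, 0.5 mM EDTA, 1 mM DTT, 0.001% Tween-20 at room temperature. DiFMUP was added at each enzyme's Km (~45 μM for PTPN2). DiFMU fluorescence was followed 15–30 min, and IC50 came from 4-parameter fits of initial rates.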

Another assay concerns the target T2, PTPN2 (Homo sapiens, UniProt P17706).
T2 sequence (P17706 1-415): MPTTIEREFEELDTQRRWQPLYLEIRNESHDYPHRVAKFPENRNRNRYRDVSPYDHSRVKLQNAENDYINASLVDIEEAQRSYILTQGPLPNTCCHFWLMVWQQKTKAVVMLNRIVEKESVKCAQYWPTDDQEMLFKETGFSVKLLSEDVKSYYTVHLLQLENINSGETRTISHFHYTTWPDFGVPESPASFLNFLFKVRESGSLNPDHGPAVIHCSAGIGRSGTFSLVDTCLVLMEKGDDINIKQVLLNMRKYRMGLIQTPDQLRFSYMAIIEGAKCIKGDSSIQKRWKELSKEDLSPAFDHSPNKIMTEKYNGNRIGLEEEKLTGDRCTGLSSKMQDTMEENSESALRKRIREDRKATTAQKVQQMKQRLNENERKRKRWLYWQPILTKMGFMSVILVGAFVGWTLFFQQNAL
The assay can be described thus: Phosphatase activity assay (DiFMUP substrate). Format: biochemical. The following applies: value bin printed in column head. The essentials:
as §1

For orientation: IC50 means the concentration that inhibits the measured activity by half. In the case of `CC(C)C(=O)O[C@H](C)OC(=O)N1CC(c2ccc(O)c(N3CC(=O)NS3(=O)=O)c2F)=C[C@@H]1CCC1CC1` [Compound 155, (S)-1-(isobutyryloxy)ethyl (S)-2-(2-cyclopropylethyl)-4-(3-(1,1-dioxido-4-oxo-1,2,5-thiadiazolidin-2-yl)-2-fluoro-4-hydroxyphenyl)-2,5-dihydro-1H-pyrrole-1-carboxylate], the half-inhibitory concentration (IC50) on PTP1B and on PTPN2 was no more than 1000 nM throughout.
Regarding `CC(OC(=O)C(C)C)OC(=O)N1CC(c2ccc(O)c(N3CC(=O)NS3(=O)=O)c2F)=C[C@H]1CCC1CCC1` (stereo partly drawn) [Compound 156, 1-(isobutyryloxy)ethyl (2R)-2-(2-cyclobutylethyl)-4-(3-(1,1-dioxido-4-oxo-1,2,5-thiadiazolidin-2-yl)-2-fluoro-4-hydroxyphenyl)-2,5-dihydro-1H-pyrrole-1-carboxylate], the half-maximal inhibitory concentration (IC50) on PTP1B and on PTPN2 was no more than 1000 nM throughout.
Take `CC(=O)OC(OC(=O)N1CC(c2ccc(O)c(N3CC(=O)NS3(=O)=O)c2F)=C[C@H]1CCC1CCC1)C(C)C` (stereo partly drawn) [Compound 157, 1-acetoxy-2-methylpropyl (2R)-2-(2-cyclobutylethyl)-4-(3-(1,1-dioxido-4-oxo-1,2,5-thiadiazolidin-2-yl)-2-fluoro-4-hydroxyphenyl)-2,5-dihydro-1H-pyrrole-1-carboxylate]: the IC50 at PTP1B and on PTPN2 was no more than 1000 nM throughout.
For `CC(OC(=O)[C@@H](N)C(C)C)OC(=O)N1CC(c2ccc(O)c(N3CC(=O)NS3(=O)=O)c2F)=C[C@H]1CCC1CCC1` (stereo partly drawn) [Compound 158, 1-((L-valyl)oxy)ethyl (2R)-2-(2-cyclobutylethyl)-4-(3-(1,1-dioxido-4-oxo-1,2,5-thiadiazolidin-2-yl)-2-fluoro-4-hydroxyphenyl)-2,5-dihydro-1H-pyrrole-1-carboxylate], the IC50 on PTP1B and on PTPN2 was no more than 1000 nM throughout.
Take `CC(C)CC[C@H]1C=C(c2ccc(O)c(N3CC(=O)NS3(=O)=O)c2F)CN1C(=O)O[C@H](C)OC(=O)C1CCCC1` [Compound 159, (R)-1-((cyclopentanecarbonyl)oxy)ethyl (S)-4-(3-(1,1-dioxido-4-oxo-1,2,5-thiadiazolidin-2-yl)-2-fluoro-4-hydroxyphenyl)-2-isopentyl-2,5-dihydro-1H-pyrrole-1-carboxylate]: the figures for the concentration for half-maximal inhibition (IC50) on PTP1B and at PTPN2 were no more than 1000 nM and greater than 1000 nM, respectively.
On to `CC(C)C(=O)OCOc1ccc(C2=C[C@@H](CCC3CCC3)NC2)c(F)c1N1CC(=O)NS1(=O)=O` [Compound 160, (R)-(4-(5-(2-cyclobutylethyl)-2,5-dihydro-1H-pyrrol-3-yl)-2-(1,1-dioxido-4-oxo-1,2,5-thiadiazolidin-2-yl)-3-fluorophenoxy)methyl isobutyrate], for which the IC50 at PTP1B and on PTPN2 was no more than 1000 nM throughout.
As for `CC(C)C(=O)O[C@H](C)OC(=O)N1CC(c2ccc(O)c(N3CC(=O)NS3(=O)=O)c2F)=C[C@H]1CCC1CC1` [Compound 161, (S)-1-(isobutyryloxy)ethyl (R)-2-(2-cyclopropylethyl)-4-(3-(1,1-dioxido-4-oxo-1,2,5-thiadiazolidin-2-yl)-2-fluoro-4-hydroxyphenyl)-2,5-dihydro-1H-pyrrole-1-carboxylate], the concentration for half-maximal inhibition (IC50) on PTP1B and on PTPN2 was no more than 1000 nM throughout.
Consider `CC(C)CC[C@H]1C=C(c2ccc(O)c(N3CC(=O)NS3(=O)=O)c2F)CN1C(=O)OC(OC(=O)[C@@H](N)C(C)C)C(C)C` (stereo partly drawn) [Compound 162, 1-((L-valyl)oxy)-2-methylpropyl (2S)-4-(3-(1,1-dioxido-4-oxo-1,2,5-thiadiazolidin-2-yl)-2-fluoro-4-hydroxyphenyl)-2-isopentyl-2,5-dihydro-1H-pyrrole-1-carboxylate], for which the concentration for half-maximal inhibition (IC50) on PTP1B and on PTPN2 was no more than 1000 nM each time.
As to `CC(OC(=O)C1CCCC1)OC(=O)N1CC(c2ccc(O)c(N3CC(=O)NS3(=O)=O)c2F)=C[C@H]1CCC1CCC1` (stereo partly drawn) [Compound 163, 1-((cyclopentanecarbonyl)oxy)ethyl (2R)-2-(2-cyclobutylethyl)-4-(3-(1,1-dioxido-4-oxo-1,2,5-thiadiazolidin-2-yl)-2-fluoro-4-hydroxyphenyl)-2,5-dihydro-1H-pyrrole-1-carboxylate], the IC50 at PTP1B and at PTPN2 was no more than 1000 nM throughout.
Regarding `CC(=O)OC(C)OC(=O)N1CC(c2ccc(O)c(N3CC(=O)NS3(=O)=O)c2F)=C[C@H]1CCC1CCC1` (stereo partly drawn) [Compound 164, 1-acetoxyethyl (2R)-2-(2-cyclobutylethyl)-4-(3-(1,1-dioxido-4-oxo-1,2,5-thiadiazolidin-2-yl)-2-fluoro-4-hydroxyphenyl)-2,5-dihydro-1H-pyrrole-1-carboxylate], the half-inhibitory concentration (IC50) at PTP1B and on PTPN2 was no more than 1000 nM each time.
For the compound `CC(C)CC[C@H]1C=C(c2ccc(O)c(N3CC(=O)NS3(=O)=O)c2F)CN1C(=O)OC(C)OC(=O)C(C)C` (stereo partly drawn) [Compound 165, 1-(isobutyryloxy)ethyl (2S)-4-(3-(1,1-dioxido-4-oxo-1,2,5-thiadiazolidin-2-yl)-2-fluoro-4-hydroxyphenyl)-2-isopentyl-2,5-dihydro-1H-pyrrole-1-carboxylate], the IC50 on PTP1B and at PTPN2 was no more than 1000 nM each time.
On to `CC(C)OC(=O)N1CC(c2ccc(O)c(N3CC(=O)NS3(=O)=O)c2F)=C[C@H]1CCC1CCC1` [Compound 166, isopropyl (R)-2-(2-cyclobutylethyl)-4-(3-(1,1-dioxido-4-oxo-1,2,5-thiadiazolidin-2-yl)-2-fluoro-4-hydroxyphenyl)-2,5-dihydro-1H-pyrrole-1-carboxylate], for which the IC50 at PTP1B and on PTPN2 was no more than 1000 nM each time.
